For one experiment, the target named is JAK2 (Homo sapiens (Human), UniProt O60674). Kind of experiment: Jak biochemical HTRF assay, JAK2. On the technique in general: In TR-FRET formats the signal depends on donor and acceptor labels being close together.
A further experiment has as its target JAK1 (Homo sapiens (Human), UniProt P23458). In words: Jak biochemical HTRF assay, JAK1.
The mark [1] stands for this setting: JAK2 IC50 (nM), recombinant GST-tagged catalytic domain, [ATP] […].
[2] abbreviates: JAK1 IC50 (nM), recombinant GST-tagged catalytic domain, [ATP] 31.8 μM.
Where [3] appears, read: read-out: JAK2 IC50, recombinant GST-tagged catalytic domain, [ATP] […].
Where [4] appears, read: read-out: JAK1 IC50, recombinant GST-tagged catalytic domain, [ATP] 31.8 μM.

Read-outs that look alike come from different tables or passages of the source.

JAK2, sequence (O60674 849-1124): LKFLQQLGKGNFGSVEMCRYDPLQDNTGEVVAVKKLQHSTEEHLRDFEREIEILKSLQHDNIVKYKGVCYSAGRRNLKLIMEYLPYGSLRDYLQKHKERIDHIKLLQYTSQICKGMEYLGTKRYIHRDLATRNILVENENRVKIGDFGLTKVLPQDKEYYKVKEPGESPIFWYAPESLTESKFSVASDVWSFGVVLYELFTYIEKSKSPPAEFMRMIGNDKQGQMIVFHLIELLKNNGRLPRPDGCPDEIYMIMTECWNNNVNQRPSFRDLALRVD
JAK1, sequence (P23458 875-1153): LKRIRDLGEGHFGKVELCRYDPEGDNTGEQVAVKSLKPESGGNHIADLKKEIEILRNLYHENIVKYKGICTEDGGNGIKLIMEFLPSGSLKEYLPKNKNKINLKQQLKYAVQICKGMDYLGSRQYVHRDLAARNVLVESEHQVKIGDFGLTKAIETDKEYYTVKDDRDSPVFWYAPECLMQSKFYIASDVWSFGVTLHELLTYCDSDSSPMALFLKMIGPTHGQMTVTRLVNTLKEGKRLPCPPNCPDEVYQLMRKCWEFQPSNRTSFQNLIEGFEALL

As to `C[C@@H](C#N)[C@H](C)n1cc(C(N)=O)c(Nc2ccccc2)n1` (mixture of isomers) [Example 1-23, 1-((2S, 3R and 2R, 3S)-3-cyclobutan-2-yl)-3-(phenylamino)-1H-pyrazole-4-carboxamide], the IC50 – broadly, the point on the concentration scale where inhibition reaches its midpoint – was 413 nM at JAK2 (setting [1]) and 123 nM on JAK1 (setting [2]).
The corresponding values for `COc1cc(Nc2nn(C(CC#N)C3CC3)cc2C(N)=O)ccn1` (centres unmarked) [Example 4-12, 1-(2-cyano-1-cyclopropylethyl)-3-[(2-methoxypyridin-4-yl)amino]-1H-pyrazole-4-carboxamide] are 66 nM and 7 nM.
With `N#CC[C@@H](C1CCN(C(=O)OC2CCCC2)CC1)n1cc(C(N)=O)c(Nc2ccc(F)cc2)n1` [Example 11-6, cyclopentyl 4-[(1S)-1-{4-carbamoyl-3-[(4-fluorophenyl)amino]-1H-pyrazol-1-yl}-2-cyanoethyl]piperidine-1-carboxylate], the figures for the IC50 on JAK2 (setting [1]) and on JAK1 (setting [2]) were 1200 nM and 69 nM, respectively.
In the case of `CC(C)(CC#N)n1cc(C(N)=O)c(Nc2ccccc2)n1` [Example 1-21, 1-(2-cyano-1,1-dimethylethyl)-3-(phenylamino)-1H-pyrazole-4-carboxamide], the half-inhibitory concentration (IC50) came out at 103 nM on JAK2 (setting [1]) and 12 nM on JAK1 (setting [2]).
As for `N#CCC(C1CC1)n1cc(C(N)=O)c(Nc2ccnc(F)c2)n1` (centres unmarked) [Example 4-37, 1-(2-cyano-1-cyclopropylethyl)-3-[(2-fluoropyridin-4-yl)amino]-1H-pyrazole-4-carboxamide], the half-inhibitory concentration (IC50) at JAK2 (setting [1]) came to 44 nM; at JAK1 (setting [2]), 5 nM.
`CC(CC#N)n1cc(C(N)=O)c(Nc2ccccc2)n1` (centres unmarked) [Example 1-6, 1-(2-cyano-1-methylethyl)-3-(phenylamino)-1H-pyrazole-4-carboxamide]: the values for the concentration for half-maximal inhibition (IC50) on JAK2 (setting [1]) and on JAK1 (setting [2]) were 417 nM and 61 nM, respectively.
For `N#CCC(C1CC1)n1cc(C(N)=O)c(Nc2ccccc2F)n1` (centres unmarked) [Example 6-2, 1-(2-cyano-1-cyclopropylethyl)-3-[(2-fluorophenyl)amino]-1H-pyrazole-4-carboxamide], the IC50 on JAK2 (setting [3]) came to 1480 nM; on JAK1 (setting [4]) it was 360 nM.
As to `N#CCC(C1CC1)n1cc(C(N)=O)c(Nc2cccc(C(F)(F)F)c2)n1` (centres unmarked) [Example 4-4, 1-(2-cyano-1-cyclopropylethyl)-3-{[3-(trifluoromethyl)phenyl]amino}-1H-pyrazole-4-carboxamide], the IC50 on JAK2 (setting [1]) turned out to be 394 nM; at JAK1 (setting [2]), 82 nM.
Regarding `N#CC[C@@H](C1CCN(C(=O)OC2CCC2)CC1)n1cc(C(N)=O)c(Nc2ccc(F)cc2)n1` [Example 11-5, cyclobutyl 4-[(1S)-1-{4-carbamoyl-3-[(4-fluorophenyl)amino]-1H-pyrazol-1-yl}-2-cyanoethyl]piperidine-1-carboxylate], the IC50 was 1170 nM at JAK2 (setting [1]) and 33 nM at JAK1 (setting [2]).
Regarding `CC(C)COC(=O)N1CCC([C@H](CC#N)n2cc(C(N)=O)c(Nc3ccc(F)cc3)n2)CC1` (single isomer, unassigned) [Example 12-3, 2-methylpropyl 4-[(1S or 1R)-1-{4-carbamoyl-3-[(4-fluorophenyl)amino]-1H-pyrazol-1-yl}-2-cyanoethyl]piperidine-1-carboxylate], the IC50 on JAK2 (setting [1]) came out at 1500 nM; on JAK1 (setting [2]) it was 245 nM.
Turning to `C[C@H](CC#N)n1cc(C(N)=O)c(Nc2ccccc2)n1` (single isomer, unassigned) [Example 17-2, 1-[(2S or 2R)-1-cyanopropan-2-yl]-3-(phenylamino)-1H-pyrazole-4-carboxamide], the figures for the IC50 on JAK2 (setting [3]) and on JAK1 (setting [4]) were 469 nM and 47 nM, respectively.
With `CC(C)(C)OC(=O)N1CCC(C(CC#N)n2cc(C(N)=O)c(Nc3ccccc3)n2)CC1` (single isomer, unassigned) [Example 15-1, tert-Butyl 4-{(1S or 1R)-1-[4-carbamoyl-3-(phenylamino)-1H-pyrazol-1-yl]-2-cyanoethyl}piperidine-1-carboxylate], the half-maximal inhibitory concentration (IC50) on JAK2 (setting [3]) was 601 nM; at JAK1 (setting [4]) it was 13 nM.
“1-[(1R or 1S)-2-cyano-1-cyclopropylethyl]-3-{[4-(methylsulfonyl)phenyl]amino}-1H-pyrazole-4-carboxamide [Example 14-2]”: the concentration for half-maximal inhibition (IC50) was 55 nM at JAK2 (setting [3]) and 5 nM on JAK1 (setting [4]).
As to `N#CC[C@@H](C1CCN(C(=O)OC2COC2)CC1)n1cc(C(N)=O)c(Nc2ccc(F)cc2)n1` [Example 11-4, oxetan-3-yl 4-[(1S)-1-{4-carbamoyl-3-[(4-fluorophenyl)amino]-1H-pyrazol-1-yl}-2-cyanoethyl]piperidine-1-carboxylate], the half-maximal inhibitory concentration (IC50) on JAK2 (setting [1]) stood at 861 nM; on JAK1 (setting [2]), 52 nM.
Regarding `N#CC[C@@H](C1CCN(C(=O)OCCN2CCOCC2)CC1)n1cc(C(N)=O)c(Nc2ccc(F)cc2)n1` [Example 11-13, 2-morpholin-4-ylethyl 4-[(1S)-1-{4-carbamoyl-3-[(4-fluorophenyl)amino]-1H-pyrazol-1-yl}-2-cyanoethyl]piperidine-1-carboxylate], the IC50 on JAK2 (setting [1]) was determined as 1500 nM; at JAK1 (setting [2]) it was 753 nM.
For the compound `N#CCC(C1CC1)n1cc(C(N)=O)c(Nc2cncc(C#N)c2)n1` (centres unmarked) [Example 4-18, 1-(2-cyano-1-cyclopropylethyl)-3-[(5-cyanopyridin-3-yl)amino]-1H-pyrazole-4-carboxamide], the IC50 on JAK2 (setting [1]) amounted to 425 nM; at JAK1 (setting [2]) it was 131 nM.
The corresponding values for `CC(C)(C)OC(=O)CN1Cc2cc(Nc3nn(C(CC#N)C4CC4)cc3C(N)=O)ccc2C1=O` (centres unmarked) [Example 4-34, tert-butyl (5-{[4-carbamoyl-1-(2-cyano-1-cyclopropylethyl)-1H-pyrazol-3-yl]amino}-1-oxo-1,3-dihydro-2H-isoindol-2-yl)acetate] are 20 nM and 2 nM.
With `N#CCC(C1CC1)n1cc(C(N)=O)c(Nc2ccc(C#N)cc2)n1` (centres unmarked) [Example 4-14, 1-(2-cyano-1-cyclopropylethyl)-3-[(4-cyanophenyl)amino]-1H-pyrazole-4-carboxamide], the IC50 was determined as 33 nM on JAK2 (setting [1]) and 5 nM at JAK1 (setting [2]).
Turning to `CC(OC(=O)N1CCC([C@H](CC#N)n2cc(C(N)=O)c(Nc3ccc(F)cc3)n2)CC1)C(F)(F)F` (stereo partly drawn) [Example 11-11, 2,2,2-trifluoro-1-methylethyl 4-[(1S)-1-{4-carbamoyl-3-[(4-fluorophenyl)amino]-1H-pyrazol-1-yl}-2-cyanoethyl]piperidine-1-carboxylate], the IC50 on JAK2 (setting [1]) amounted to 1040 nM; on JAK1 (setting [2]), 46 nM.
Consider `CN(C)C(=O)c1ccc(Nc2nn(C(CC#N)C3CC3)cc2C(N)=O)cc1` (centres unmarked) [Example 4-22, 1-(2-cyano-1-cyclopropylethyl)-3-{[4-(dimethylcarbamoyl)phenyl]amino}-1H-pyrazole-4-carboxamide], for which the half-inhibitory concentration (IC50) worked out at 16 nM at JAK2 (setting [1]) and 3 nM at JAK1 (setting [2]).
Take `CN(C)S(=O)(=O)c1ccc(Nc2nn(C(CC#N)C3CC3)cc2C(N)=O)cc1` (centres unmarked) [Example 6-4, 1-(2-cyano-1-cyclopropylethyl)-3-{[4-(dimethylsulfamoyl)phenyl]amino}-1H-pyrazole-4-carboxamide]: the IC50 on JAK2 (setting [1]) was 3 nM; at JAK1 (setting [2]), 1 nM.
On to `N#CC[C@@H](C1CCN(C(=O)OCC(F)(F)F)CC1)n1cc(C(N)=O)c(Nc2ccc(F)cc2)n1` [Example 11-7, 2,2,2-trifluoroethyl 4-[(1S)-1-{4-carbamoyl-3-[(4-fluorophenyl)amino]-1H-pyrazol-1-yl}-2-cyanoethyl]piperidine-1-carboxylate], for which the IC50 at JAK2 (setting [1]) came out at 425 nM; at JAK1 (setting [2]), 7 nM.
